Measured values as given in patent US20100137403A1, “METHOD FOR ENHANCING COGNITION OR INHIBITING COGNITIVE DECLINE” (priority 2008, published 2010).
Entries after “also recorded” stand apart in the source; their conditions may differ. Like-named read-outs stand apart in the source and are kept apart here.

Columns and labels:
C57BL/6 mice [1] = conditions: general statement on the SAT test; cited from earlier work
[2] = in vivo; cited from earlier work
NF-κB [3] = test: In vivo bio-photonic imaging of NF-κB luciferase reporter transgenic mice; set-up: species or system mouse; conditions: for NF-κB activation in brain (dorsal brain images): Example 3
NF-κB [4] = test: as above; set-up: species or system mouse; conditions: for NF-κB activation in the brain: Example 4
Experimental: The animal used to establish this criterion is preferably a laboratory animal, more preferably a rodent, illustratively a mouse. […] In this technique, a test compound, in this case a Ca^2+ channel blocker, is administered by intravenous (i.v.) injection to transgenic mice having a firefly luciferase reporter driven by one or more NF-κB response elements fused to the reporter (NF-κB::LUC mice). NF-κB expression, nuclear translocation and binding to the response elements in any anatomical or sub-anatomical region of a mouse results in activation of the luciferase reporter in that region. Activated luciferase, in presence of a luciferin substrate, emits light which can be detected and quantitated, and can be used in whole-body imaging to identify specific anatomical or sub-anatomical regions where the luciferase is activated as a result of NF-κB expression. Mice can be anesthetized and imaged at time intervals after administration of the test compound to reveal temporal as well as spatial distribution of NF-κB expression.
In vivo bio-photonic imaging was used to investigate temporal and spatial modulation of physiological processes following acute tiapamil administration to mice. For these studies we employed an NF-κB luciferase transgenic line that was constructed using three NF-κB response elements fused to a firefly luciferase reporter gene. The effect of tiapamil on NF-κB activation was monitored as modulation of detectable luciferase reporter activity, a surrogate for NF-κB activation and nuclear translocation with subsequent binding to the response elements of the reporter. Luciferase activity was detected by its ability to cleave luciferin, a luciferase substrate. Light emitted was detected and analyzed using a highly sensitive CCD imaging system.
For the present study, female NF-κB transgenic mice (5 per treatment) received tiapamil i.v. at 1 or 10 mg/kg in a saline vehicle, or vehicle control. At 2, 4 and 6 hours after administration, the animals were anesthetized and imaged. Visual and quantitative analysis was then performed based on counting photons of light emitted from specific anatomical regions. […] The data are depicted quantitatively in FIG. 1.

C57BL/6 mice [5] = test: Spontaneous alternation task (SAT) test of short-term memory in T-maze; format: in vivo, mouse; conditions: for alternation (short-term memory) in healthy mice / alternation (short-term memory) in scopolamine-treated mice: 30 mg/kg i.p. 8 hours prior to the SAT; for alternation (short-term memory) in healthy mice: administered alone; for alternation (short-term memory) in scopolamine-treated mice: scopolamine 1 mg/kg i.p. 30 minutes prior
mice = test: Lethality of phenylalkylamine Ca2+ channel blockers in mice; format: in vivo; conditions: 10 mg/kg i.v.
Source text: […]. The doses administered for these studies were selected to reflect the previously characterized potency of each of the drugs on blocking L-type Ca^2+ channel function. […].

[6] = system: nucleus basalis magnocellularis lesioned rats; conditions: cited from earlier work
young adult mice = conditions: cited from earlier work
mouse cerebellar neurons = conditions: cited from earlier work
NF-κB [7] = test: Luciferase imaging of 1 mm coronal brain sections from NF-κB transgenic mice; format: in vivo, mouse; conditions: 1 and 10 mg/kg, 6-hour time point
Source text: Evaluation of tiapamil in the NF-κB transgenic mouse line was repeated essentially as described in Example 1 and whole-body images were collected at the 6-hour time point. Brains were rapidly removed, chilled in ice-cold saline and sliced into 1 mm coronal sections. The sections were then placed onto glass slides, covered with luciferin solution (Luciferase Assay System substrate, Promega) and subsequently imaged in an IVIS 200 imaging system (Caliper Corp.) to evaluate effect of tiapamil on regional distribution of luciferase activity in the brain.

Sprague-Dawley rats = test: Novel object recognition (NOR) test of long-term memory; format: in vivo, rat
Source text: The novel object recognition (NOR) paradigm is a rodent model of recognition learning memory retrieval and takes advantage of the spontaneous behavior of rodents to investigate a novel object by comparison with a familiar object (Ennaceur & Delacour (1988) Behav Brain Res. 31:47-59). NOR has been employed extensively to indicate potential cognition-enhancing properties of test compounds.
The objective of this study was to test cognition-enhancing properties of tiapamil using the NOR test of long-term memory in healthy male rats. Adult male Sprague-Dawley rats were used in this study. Animals were placed in the experimental rooms at postnatal day 80 and assigned unique identification numbers (tail marked). Pairs were housed in polycarbonate cages with filter tops and acclimated for 7 days prior to commencing any studies. Animals were maintained in a 12 hour light/dark cycle with room temperature maintained at 22±2° C. with relative humidity maintained at approximately 50%. Food and water were provided ad libitum. All animals were examined, handled, and weighed for two days prior to initiation of the study to assure adequate health and suitability and to minimize non-specific stress associated with manipulation. Each animal was randomly assigned across treatment groups (8 animals per group) and balanced by cage numbers. […]
Tiapamil (10 or 30 mg/kg) was dissolved in saline and administered i.p. 1 or 8 hours prior to training. […] The rats were assessed for cognitive ability in a test apparatus comprising an open-field arena placed in a sound-attenuated room under dimmed lighting. […] All tests were video-scored blind. […] This 10-minute training period, T1, was recorded for subsequent analysis if necessary. […] After 24 hours, each rat was placed again in the test arena for 10 minutes (T2) in presence of a copy of the familiar object and a novel object, and the time spent exploring both objects was recorded. […] The NOR index was measured as the ratio of time spent exploring the novel object over total time spent exploring both objects (familiar+novel), during retention session T2.

COc1cc2c(cc1OC)C(=O)C(CC1CCN(Cc3ccccc3)CC1)C2 (centres unmarked) [donepezil]
spontaneous alternation (C57BL/6 mice [1]): enhanced

CN1[C@@H]2C[C@@H](OC(=O)[C@H](CO)c3ccccc3)C[C@H]1[C@@H]1O[C@@H]12 [scopolamine]
spontaneous alternation (C57BL/6 mice [1]): impaired

gallopamil
efficacy on aspects of ischemic disease [2]: ineffective
NF-κB activation in brain (dorsal brain images) (NF-κB [3]; 0.5 mg/kg i.v., 2- and 4-hour time points): marginal effect
NF-κB activation in brain (dorsal brain images) (NF-κB [3]; 0.5 mg/kg i.v., 6-hour time point): more dramatic effect
NF-κB activation in the brain (NF-κB [4]; 1 mg/kg i.v., 3 surviving animals, 1 mg/kg): induced NF-κB activation; also recorded: increased NF-κB expression in the brain
NF-κB activation in the brain (NF-κB [4]; 10 mg/kg i.v., surviving animals, 2, 4, 6 hours): minor to no change

O=C(O)c1cc(/N=N/c2ccc(S(=O)(=O)Nc3ccccn3)cc2)ccc1O [sulfasalazine]
effect on tiapamil-induced short-term memory enhancement (C57BL/6 mice [5]; sulfasalazine 3 mg/kg i.p. co-administered with tiapamil 30 mg/kg 8 hours prior to the SAT, healthy mice): loss of tiapamil's memory-enhancing effects
measureable NF-κB activity (NF-κB [3]; Example 5, co-administration of tiapamil and high-dose sulfasalazine): increased amount of measureable NF-κB activity
measureable NF-κB activity (NF-κB [3]; Example 5, high-dose sulfasalazine alone): increased amount of measureable NF-κB activity

COc1ccc(CCN(C)CCCC(C#N)(c2ccc(OC)c(OC)c2)C(C)C)cc1OC (centres unmarked) [verapamil]
Deaths (n = 5) (mice): 5
acquisition and performance aspects of active avoidance ([6]; 2.5 and 5 mg/kg): improved
acquisition and performance aspects of active avoidance ([6]; lower (1 mg/kg) and higher (10 mg/kg) doses): ineffective
linear maze acquisition (young adult mice; at the most effective retention dose): failed to enhance acquisition
linear maze retention (young adult mice; young adult mice): enhancement effects at three doses
retention of passive avoidance learning (young adult mice; young adult mice): failed to facilitate retention
genetically-inhibited neurite extension (mouse cerebellar neurons; mouse cerebellar neurons): could restore
neuroprotection (mouse cerebellar neurons; normal neurons exposed to high concentrations of ethanol): neuroprotective

COc1ccc(CCN(C)CCCC2(c3ccc(OC)c(OC)c3)S(=O)(=O)CCCS2(=O)=O)cc1OC [tiapamil, N-(3,4-dimethoxyphenethyl)-2-(3,4-dimethoxyphenyl)-N-methyl-m-dithian-2-propylamin-1,1,3,3-tetroxide]
alternation (short-term memory) in healthy mice (C57BL/6 mice [5]): enhances short-term memory
alternation (short-term memory) in healthy mice (C57BL/6 mice [5]; listed as Tiapamil): increased the number of alternation events
alternation (short-term memory) in scopolamine-treated mice (C57BL/6 mice [5]): reverses memory deficits
alternation (short-term memory) in scopolamine-treated mice (C57BL/6 mice [5]; listed as Tiapamil): prevented scopolamine-induced impairment
luciferase expression in all regions of the brain evaluated (NF-κB [7]): dramatic effect
efficacy on aspects of ischemic disease [2]: ineffective
NF-κB activation in brain (dorsal brain images) (NF-κB [3]; 10 mg/kg i.v., 2, 4 and 6 hours): robust effect
NF-κB signaling in the brain (light emission from head region, dorsal view) (NF-κB [3]; Example 5, i.p., 2, 4, 6 and 8 hours): enhanced
NF-κB activation in the brain (NF-κB [4]; 10 mg/kg i.v., surviving animals, 2, 4, 6 hours, 10 mg/kg): robust effect; also recorded: substantially increased
NF-κB activation in peripheral anatomical regions (NF-κB [4]; i.v. 1 or 10 mg/kg): no effect
NF-κB expression in the head (NF-κB [4]; i.v. 1 or 10 mg/kg, 4 and 6 hours after treatment): dose-dependent increase
NOR index 24 hours after training (Sprague-Dawley rats; 10 mg/kg i.p., 1 hour): significantly increased NOR index
NOR index 24 hours after training (Sprague-Dawley rats; 10 mg/kg i.p., 8 hours): significantly increased NOR index
NOR index 24 hours after training (Sprague-Dawley rats; 30 mg/kg i.p.): not effective
